# From patent publication US11040038B2, “Methods for treating diseases associated with abnormal ACVR1 expression and ACVR1 inhibitors for use in the same” (Sumitomo Dainippon Pharma Oncology, Inc., priority 2018, dated 2021)
# How the values were obtained:
# [1] = Pharmacokinetic and tissue distribution study; type: in vivo, CD-1 male mice; details: mice, 20 mg/kg PO; for Cmax / Tmax / half-life / AUC(0-t) / AUC: male, CD-1, mouse; for AUC: read-out: AUC0-?
# Description: An additional pharmacokinetic and tissue distribution study was conducted to comprehensively evaluate Compound 2 exposure in multiple mouse organs. CD-1 male mice were dosed 20 mg/kg, PO with Compound 2 formulated in 20% solutol and 80% saline. Plasma and organs were collected at nine (9) time points and the drug concentrations were determined by LC-MS/MS. […] The results confirmed exposure in clinically relevant target organs, including brain and liver (Table 7).
# [2] = system: ALK2/ACVR1 having various mutations; assay: Activity on ALK2/ACVR1 having various mutations (FIG. 8); type: biochemical
# From the text: Biochemical Studies indicate that mutations in the intracellular domain can have activating effects on ACVR1/ALK2 kinase activity. Many of the known mutations enhance the activity of the receptor in response to the receptor ligand.
# [3] = system: ACVR1 mutant (G328V mutated cell line) and wild type DIPG cell lines; assay: Proliferation assay against DIPG cell lines; type: cell-based; details: ACVR1 G328V mutant vs wild type DIPG cell lines
# Description: Compound 2 was tested in a proliferation assay against ACVR1 mutant (G328V mutated cell line) and wild type DIPG cell lines in vitro.
# [4] = IV and PO plasma pharmacokinetics in rats; type: in vivo; details: Sprague-Dawley, rat, fasted female SD rats
# Description: Pharmacokinetic and toxicology of Compound 2 were tested in rats. The intravenous (IV) and oral (PO) pharmacokinetics of Compound 2 were determined in plasma in fasted female Sprague-Dawley (SD) rats. The formulation used was 20% solutol and 80% saline for both administration routes. The nominal dose was 2 mg/kg (IV) and 20 mg/kg (PO). Samples were taken at 8 time points and the drug concentrations were determined by LC-MS/MS.
# [5] = Comparison of concentration in plasma and brain tissue; type: in vivo, mice; details: 20 mg/kg
# From the text: Additionally, a comparison of Compound 2 concentration in the plasma and brain tissue was made, the results of which are in FIG. 4B and Table 6.
# [6] = Preliminary brain PK study; type: in vivo; details: mouse, mice, brain tissue
# Description: In order to be an effective treatment for DIPG, Compound 2 needs to distribute to the brain and more importantly, achieve fairly deep penetration to the pons region of the brain. To assess the general distribution of Compound 2 to the brain, a preliminary brain PK study was conducted. Brain tissue concentrations show very good distribution to the brain (FIG. 4A).
# [7] = Oral pharmacokinetics in a single human DIPG patient; type: in vivo; details: free base, nominal 240 mg/m2 PO
# Description: Compound 2 free base was tested in humans. Oral pharmacokinetics of Compound 2 were determined in a single human patient for the treatment of DIPG. The formulation was free base Compound 2 by gelatin capsule daily for 15 days, followed by a 20-day suspension period. Dosing was resumed by dissolving in juice and administering via nasogastric tube for 9 days. The nominal dose is 240 mg/m2 (PO). Blood samples were collected at four (4) time points and the drug concentrations are determined by LC-MS/MS.
# Additional PK parameters were evaluated.
# [8] = Table 4, route and dose not given
# [9] = Table 5, route and dose not given
structure (smiles),measurement,setting,value
"COc1cc(Nc2nccc(Nc3cccnc3-c3ccccn3)n2)ccc1N1CCN(C)CC1 [Compound 2, N^4-(2,2′-bipyridin-3-yl)-N^2-(3-methoxy-4-(4-methylpiperazin-1-yl)phenyl)pyrimidine-2,4-diamine]",Cmax,[1]; adrenals,13800 ng/g
same,Tmax,[1]; adrenals,1.3 h
same,half-life,[1]; adrenals,3.3 h
same,Cmax,[1]; bladder,2220 ng/g
same,Tmax,[1]; bladder,3 h
same,half-life,[1]; bladder,3.1 h
same,AUC(0-t),[1]; bone marrow,1940 ng·h/mL
same,Cmax,[1]; bone marrow,240 ng/mL
same,Tmax,[1]; bone marrow,4.5 h
same,half-life,[1]; bone marrow,4.6 h
same,AUC,[1]; bone marrow,2020 ng·h/mL
same,Cmax,[1]; brain,1690 ng/g
same,Tmax,[1]; brain,3.2 h
same,half-life,[1]; brain,2.6 h
same,Cmax,[1]; intestine,20200 ng/g
same,Tmax,[1]; intestine,1.8 h
same,half-life,[1]; intestine,3.6 h
same,Cmax,[1]; kidney,31100 ng/g
same,Tmax,[1]; kidney,2.3 h
same,half-life,[1]; kidney,2.5 h
same,Cmax,[1]; liver,79900 ng/g
same,Tmax,[1]; liver,0.8 h
same,half-life,[1]; liver,3.3 h
same,Cmax,[1]; lung,18300 ng/g
same,Tmax,[1]; lung,1.3 h
same,half-life,[1]; lung,2.8 h
same,Cmax,[1]; pancreas,10600 ng/g
same,Tmax,[1]; pancreas,3.2 h
same,half-life,[1]; pancreas,2.6 h
same,AUC(0-t),[1]; plasma,2340 ng·h/mL
same,Cmax,[1]; plasma,378 ng/mL
same,Tmax,[1]; plasma,1 h
same,half-life,[1]; plasma,3.8 h
same,AUC,[1]; plasma,2380 ng·h/mL
same,Cmax,[1]; spleen,36200 ng/g
same,Tmax,[1]; spleen,6 h
same,half-life,[1]; spleen,13.3 h
same,Cmax,[1]; stomach,17300 ng/g
same,Tmax,[1]; stomach,0.5 h
same,half-life,[1]; stomach,3.6 h
same,AUC0-?,[1]; adrenals,76421 ng*h/G
same,AUCLast,[1]; adrenals,75782 ng*h/G
same,AUC0-?,[1]; bladder,17546 ng*h/G
same,AUCLast,[1]; bladder,17386 ng*h/G
same,AUC0-?,[1]; brain,7756 ng*h/G
same,AUCLast,[1]; brain,7729 ng*h/G
same,AUC0-?,[1]; intestine,52421 ng*h/G
same,AUCLast,[1]; intestine,51891 ng*h/G
same,AUC0-?,[1]; kidney,152790 ng*h/G
same,AUCLast,[1]; kidney,152492 ng*h/G
same,AUC0-?,[1]; liver,286210 ng*h/G
same,AUCLast,[1]; liver,284827 ng*h/G
same,AUC0-?,[1]; lung,76908 ng*h/G
same,AUCLast,[1]; lung,76622 ng*h/G
same,AUC0-?,[1]; pancreas,53297 ng*h/G
same,AUCLast,[1]; pancreas,53163 ng*h/G
same,AUC0-?,[1]; spleen,627382 ng*h/G
same,AUCLast,[1]; spleen,406119 ng*h/G
same,AUC0-?,[1]; stomach,32717 ng*h/G
same,AUCLast,[1]; stomach,32467 ng*h/G
same,Inhibition of ALK2 receptors having various mutations,[2],effective in inhibiting ALK2 receptors having various mutations
same,Activity in proliferation assay,[3],selective activity against the mutated cell line
same,AUC,[4]; 20 mg/kg PO,2520 ng·h/mL
same,Cmax,[4]; 20 mg/kg PO,159 ng/mL
same,Tmax,[4]; 20 mg/kg PO,5.33 h
same,half-life,[4]; 20 mg/kg PO,6.58 h
same,bioavailability,"[4]; 20 mg/kg PO vs 2 mg/kg IV, read-out: Oral Bioavailability (% F)",60.8%
same,Cmax,"[5]; CD-1, mouse, po, brain",1690 ng/g
same,Cmax,"[5]; CD-1, mouse, po, plasma",378 ng/mL
same,AUC,"[5]; CD-1, mouse, po, plasma, read-out: AUC",2340 ng·h/mL
same,AUC,[5]; brain,"7,765 ng/g · hr"
same,AUC(0-t),[6]; [8],750 ng·h/mL
same,Cmax,[6]; [8],691 ng/g
same,Tmax,[6]; [8],0.083 h
same,half-life,[6]; [8],1.23 h
same,AUC(0-inf),"[6]; Table 4, route and dose not printed (FIG. 4A: intravenous and oral)",758 ng·h/mL
same,AUC(0-t),[6]; [9],10300 ng·h/mL
same,Cmax,[6]; [9],2740 ng/g
same,Tmax,[6]; [9],1.8 h
same,half-life,[6]; [9],2.57 h
same,AUC(0-inf),"[6]; Table 5, route and dose not printed (FIG. 4A: intravenous and oral)",10300 ng·h/mL
same,"Oral absorption, detection in plasma",[7],detected in plasma 24 hours post-dosing
